Reference: ChEMBL document CHEMBL3797167, “Development of a peptide-based inducer of nuclear receptors degradation” (Bioorg Med Chem Lett, 2016)
Values belong to the compound of their own block, whether it stands above or below them. Active and inactive are the calls of the source. The calls are words filed in the database; no cut-off is given here.

Key:
[1] = molecular target: T1, Estrogen receptor (Homo sapiens) (UniProt P03372); experiment: Induction of ERalpha degradation in human MCF7 cells at 0.3 to 3 uM after 6 hrs by Western blot analysis; format: cell-based
T1 sequence (whole entry): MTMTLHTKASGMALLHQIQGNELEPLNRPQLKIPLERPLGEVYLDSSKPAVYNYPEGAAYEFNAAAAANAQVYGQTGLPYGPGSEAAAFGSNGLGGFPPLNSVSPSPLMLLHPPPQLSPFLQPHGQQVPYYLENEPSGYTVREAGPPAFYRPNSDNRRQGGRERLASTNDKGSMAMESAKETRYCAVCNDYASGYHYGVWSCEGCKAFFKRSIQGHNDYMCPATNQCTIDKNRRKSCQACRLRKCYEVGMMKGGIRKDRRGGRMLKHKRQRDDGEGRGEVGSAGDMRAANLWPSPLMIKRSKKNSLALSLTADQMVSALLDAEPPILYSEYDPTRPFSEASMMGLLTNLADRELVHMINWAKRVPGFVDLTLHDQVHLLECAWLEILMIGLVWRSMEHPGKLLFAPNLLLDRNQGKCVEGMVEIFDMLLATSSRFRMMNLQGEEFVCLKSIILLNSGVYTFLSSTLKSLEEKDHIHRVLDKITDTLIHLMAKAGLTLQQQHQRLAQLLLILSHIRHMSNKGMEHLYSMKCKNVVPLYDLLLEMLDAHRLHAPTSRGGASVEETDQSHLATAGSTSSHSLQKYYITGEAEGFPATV

[2] = molecular target: T1, Estrogen receptor (Homo sapiens); experiment: Induction of ERalpha degradation in human MCF7 cells assessed as ERalpha/actin ratio level at 3 uM after 6 hrs by Western blot analysis (reference value: 100%); format: cell-based
[3] = molecular target: T1, Estrogen receptor (Homo sapiens); experiment: Induction of ERalpha degradation in human MCF7 cells assessed as ERalpha/actin ratio level at 0.3 uM after 6 hrs by Western blot analysis (reference value: 100%); format: cell-based
[4] = molecular target: T1, Estrogen receptor (Homo sapiens); experiment: Induction of ERalpha degradation in human MCF7 cells assessed as ERalpha/actin ratio level at 1 uM after 6 hrs by Western blot analysis (reference value: 100%); format: cell-based
[5] = molecular target: T1, Estrogen receptor (Homo sapiens); experiment: Induction of ERalpha degradation in human MCF7 cells at 3 to 10 uM after 6 hrs by Western blot analysis; format: cell-based
MCF7 [6] = experiment: Cytotoxicity against human MCF7 cells at 10 uM after 6 hrs; format: cell-based; details: mcf7, 6 h
[7] = molecular target: T1, Estrogen receptor (Homo sapiens); experiment: Induction of ERalpha degradation in human MCF7 cells assessed as ERalpha/actin ratio level at 10 uM after 6 hrs by Western blot analysis (reference value: 100%); format: cell-based
[8] = molecular target: T1, Estrogen receptor (Homo sapiens); experiment: Induction of ERalpha degradation in human MCF7 cells assessed as ERalpha/actin ratio level at 5 uM after 6 hrs by Western blot analysis (reference value: 100%); format: cell-based
[9] = molecular target: T1, Estrogen receptor (Homo sapiens); experiment: Induction of ERalpha degradation in human MCF7 cells after 6 hrs by Western blot analysis; format: cell-based
[10] = molecular target: Baculoviral IAP repeat-containing protein 2 (Homo sapiens) (UniProt Q13490); experiment: Induction of cIAP1 degradation in human MCF7 cells after 6 hrs by Western blot analysis; format: cell-based
MCF7 [11] = experiment: Cytotoxicity against human MCF7 cells at >6 uM after 6 hrs; format: cell-based; details: mcf7, 6 h
[12] = molecular target: T2, Androgen receptor (Homo sapiens) (UniProt P10275); experiment: Induction of AR degradation in human MCF7 cells at 3 to 6 uM after 6 hrs by Western blot analysis; format: cell-based
T2 sequence (whole entry): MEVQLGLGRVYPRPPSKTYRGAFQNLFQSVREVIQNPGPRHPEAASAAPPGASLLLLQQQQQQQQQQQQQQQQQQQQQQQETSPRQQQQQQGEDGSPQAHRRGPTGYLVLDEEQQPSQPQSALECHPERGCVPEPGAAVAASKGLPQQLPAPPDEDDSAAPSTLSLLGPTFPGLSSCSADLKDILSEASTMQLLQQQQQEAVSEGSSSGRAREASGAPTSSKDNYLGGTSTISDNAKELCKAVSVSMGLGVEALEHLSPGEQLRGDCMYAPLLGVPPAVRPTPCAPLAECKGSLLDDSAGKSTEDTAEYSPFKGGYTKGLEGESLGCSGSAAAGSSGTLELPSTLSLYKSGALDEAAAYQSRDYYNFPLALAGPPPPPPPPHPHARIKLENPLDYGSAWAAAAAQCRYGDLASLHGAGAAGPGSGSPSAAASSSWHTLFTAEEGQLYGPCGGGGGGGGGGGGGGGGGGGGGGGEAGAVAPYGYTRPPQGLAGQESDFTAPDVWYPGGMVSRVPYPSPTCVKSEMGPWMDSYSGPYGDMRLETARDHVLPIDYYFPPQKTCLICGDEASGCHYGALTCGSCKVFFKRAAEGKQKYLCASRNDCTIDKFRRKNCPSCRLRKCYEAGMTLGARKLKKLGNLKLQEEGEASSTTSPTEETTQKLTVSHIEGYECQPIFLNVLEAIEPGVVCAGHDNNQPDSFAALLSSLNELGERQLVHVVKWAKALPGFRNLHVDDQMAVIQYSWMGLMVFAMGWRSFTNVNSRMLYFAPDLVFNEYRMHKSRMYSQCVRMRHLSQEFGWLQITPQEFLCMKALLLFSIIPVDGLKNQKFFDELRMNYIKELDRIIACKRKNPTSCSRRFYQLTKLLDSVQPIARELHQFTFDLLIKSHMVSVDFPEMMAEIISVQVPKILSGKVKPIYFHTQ

[13] = molecular target: T2, Androgen receptor (Homo sapiens); experiment: Induction of AR degradation in human MCF7 cells at 3 to 6 uM after 6 hrs by Western blot in presence of MG132; format: cell-based
[14] = molecular target: T3, Aryl hydrocarbon receptor (Homo sapiens, UniProt P35869); experiment: Induction of AhR degradation in human MCF7 cells at 3 to 6 uM after 6 hrs by Western blot analysis; format: cell-based; details: mcf7, 6 h
T3 sequence (P35869 whole entry): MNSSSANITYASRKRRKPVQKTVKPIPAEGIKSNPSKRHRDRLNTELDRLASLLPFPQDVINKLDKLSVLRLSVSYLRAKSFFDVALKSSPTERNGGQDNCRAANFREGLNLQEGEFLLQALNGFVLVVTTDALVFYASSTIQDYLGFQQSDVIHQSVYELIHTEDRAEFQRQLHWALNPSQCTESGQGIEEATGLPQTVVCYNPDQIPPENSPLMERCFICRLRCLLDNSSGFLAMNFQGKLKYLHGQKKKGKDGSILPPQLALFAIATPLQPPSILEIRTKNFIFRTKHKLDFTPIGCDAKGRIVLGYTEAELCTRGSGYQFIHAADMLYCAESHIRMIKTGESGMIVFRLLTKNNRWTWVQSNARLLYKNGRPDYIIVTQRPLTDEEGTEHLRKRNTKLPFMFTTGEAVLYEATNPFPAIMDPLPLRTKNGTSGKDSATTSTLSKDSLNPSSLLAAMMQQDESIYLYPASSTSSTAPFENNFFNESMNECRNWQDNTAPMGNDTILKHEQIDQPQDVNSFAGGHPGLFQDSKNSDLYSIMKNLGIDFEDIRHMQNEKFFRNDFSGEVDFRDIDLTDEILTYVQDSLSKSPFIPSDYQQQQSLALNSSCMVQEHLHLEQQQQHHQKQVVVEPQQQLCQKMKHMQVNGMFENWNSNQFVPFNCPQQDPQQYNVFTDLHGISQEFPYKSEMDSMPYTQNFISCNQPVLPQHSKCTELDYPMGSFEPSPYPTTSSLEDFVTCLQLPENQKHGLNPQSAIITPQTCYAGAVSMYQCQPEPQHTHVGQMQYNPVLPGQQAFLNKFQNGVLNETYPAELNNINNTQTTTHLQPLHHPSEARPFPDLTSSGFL

[15] = molecular target: T1, Estrogen receptor (Homo sapiens); experiment: Induction of ERalpha degradation in human MCF7 cells assessed as ERalpha/actin ratio level at 4.5 uM after 6 hrs by Western blot analysis (reference value: 100%); format: cell-based
[16] = molecular target: T1, Estrogen receptor (Homo sapiens); experiment: Induction of ERalpha degradation in human MCF7 cells assessed as ERalpha/actin ratio level at 6 uM after 6 hrs by Western blot analysis (reference value: 100%); format: cell-based
[17] = molecular target: T2, Androgen receptor (Homo sapiens); experiment: Induction of AR degradation in human MCF7 cells assessed as AR/actin ratio level at 3 uM after 6 hrs by Western blot analysis (reference value: 100%); format: cell-based
[18] = molecular target: T2, Androgen receptor (Homo sapiens); experiment: Induction of AR degradation in human MCF7 cells assessed as AR/actin ratio level at 4.5 uM after 6 hrs by Western blot analysis (reference value: 100%); format: cell-based
[19] = molecular target: T2, Androgen receptor (Homo sapiens); experiment: Induction of AR degradation in human MCF7 cells assessed as AR/actin ratio level at 6 uM after 6 hrs by Western blot analysis (reference value: 100%); format: cell-based
[20] = molecular target: Aryl hydrocarbon receptor (Homo sapiens) (UniProt P35869); experiment: Induction of AhR degradation in human MCF7 cells assessed as AhR/actin ratio level at 3 uM after 6 hrs by Western blot analysis (reference value: 100%)
[21] = molecular target: Aryl hydrocarbon receptor (Homo sapiens) (UniProt P35869); experiment: Induction of AhR degradation in human MCF7 cells assessed as AhR/actin ratio level at 6 uM after 6 hrs by Western blot analysis (reference value: 100%)
[22] = molecular target: Aryl hydrocarbon receptor (Homo sapiens) (UniProt P35869); experiment: Induction of AhR degradation in human MCF7 cells assessed as AhR/actin ratio level at 4.5 uM after 6 hrs by Western blot analysis (reference value: 100%)
[23] = molecular target: T1, Estrogen receptor (Homo sapiens); experiment: Induction of ERalpha degradation in human MCF7 cells at 0.1 to 1 uM after 6 hrs by Western blot analysis; format: cell-based
[24] = molecular target: Baculoviral IAP repeat-containing protein 2 (Homo sapiens) (UniProt Q13490); experiment: Induction of cIAP1 degradation in human MCF7 cells at 1 uM after 6 hrs by Western blot analysis; format: cell-based
[25] = molecular target: T1, Estrogen receptor (Homo sapiens); experiment: Induction of ERalpha degradation in human MCF7 cells assessed as ERalpha/actin ratio level at 0.1 uM after 6 hrs by Western blot analysis (reference value: 100%); format: cell-based

Baculoviral IAP repeat-containing protein 2 (Homo sapiens), sequence (Q13490 whole entry): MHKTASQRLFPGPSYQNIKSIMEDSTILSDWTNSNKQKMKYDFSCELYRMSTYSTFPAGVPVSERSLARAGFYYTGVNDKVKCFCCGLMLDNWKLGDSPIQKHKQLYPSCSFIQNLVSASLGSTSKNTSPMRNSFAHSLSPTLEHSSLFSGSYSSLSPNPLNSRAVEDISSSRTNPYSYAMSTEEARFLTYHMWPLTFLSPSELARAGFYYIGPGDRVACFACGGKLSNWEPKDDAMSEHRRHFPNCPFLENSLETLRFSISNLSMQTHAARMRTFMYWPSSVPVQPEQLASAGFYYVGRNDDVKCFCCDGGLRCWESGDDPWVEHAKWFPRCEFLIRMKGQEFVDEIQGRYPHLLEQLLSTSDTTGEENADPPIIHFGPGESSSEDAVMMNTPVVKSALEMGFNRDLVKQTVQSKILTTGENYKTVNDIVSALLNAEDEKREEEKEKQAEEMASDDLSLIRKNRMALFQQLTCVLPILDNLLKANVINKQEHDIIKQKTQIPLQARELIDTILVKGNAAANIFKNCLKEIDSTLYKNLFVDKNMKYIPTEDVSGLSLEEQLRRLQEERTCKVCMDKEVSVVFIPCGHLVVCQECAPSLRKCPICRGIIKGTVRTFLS

- Activity [1]: inactive
- Activity [2]: 95%
- Activity [3]: 109%
- Activity [4]: 114%
Compound: CC[C@H](C)[C@H]1NC(=O)[C@@H](NC(=O)[C@@H](N)CCCCNC(=O)[C@@H](NC(=O)[C@@H]2CCCN2C(=O)[C@H](NC(=O)[C@H](C)NC)C2CCCCC2)C(c2ccccc2)c2ccccc2)CSSC[C@H](C(=O)N[C@H](CCCNC(=N)N)C(=O)N[C@H](CC(C)(C)C)C(=O)N[C@H](CC(C)C)C(=O)N[C@H](CCC(N)=O)C(=O)NCC(=O)NCC(=O)NCC(=O)N[C@H](CCCNC(=N)N)C(=O)N[C@H](CCCNC(=N)N)C(=O)N[C@H](CCCNC(=N)N)C(=O)N[C@H](CCCNC(=N)N)C(=O)N[C@H](CCCNC(=N)N)C(=O)N[C@H](CCCNC(=N)N)C(=O)N[C@@H](CCCNC(=N)N)C(N)=O)NC(=O)[C@@H](CC(C)C)NC1=O

- Activity [5]: inactive
- Activity [7]: 236%
- Activity [8]: 99%
- Activity [2]: 96%
Compound: CC[C@H](C)[C@H]1NC(=O)[C@@H](NC(=O)[C@H](CCCNC(=N)N)NC(=O)COCCOCCNC(=O)[C@@H](NC(=O)[C@@H]2CCCN2C(=O)[C@H](NC(=O)[C@H](C)NC)C2CCCCC2)C(c2ccccc2)c2ccccc2)CSSC[C@H](C(=O)N[C@H](CCCNC(=N)N)C(=O)N[C@H](CC(C)(C)C)C(=O)N[C@H](CC(C)C)C(=O)N[C@H](CCC(N)=O)C(=O)NCC(=O)NCC(=O)NCC(=O)N[C@H](CCCNC(=N)N)C(=O)N[C@H](CCCNC(=N)N)C(=O)N[C@H](CCCNC(=N)N)C(=O)N[C@H](CCCNC(=N)N)C(=O)N[C@H](CCCNC(=N)N)C(=O)N[C@H](CCCNC(=N)N)C(=O)N[C@@H](CCCNC(=N)N)C(N)=O)NC(=O)[C@@H](CC(C)C)NC1=O
- Activity (MCF7 [6]): Toxic

- Activity [9]: Dose-dependent effect
- Activity [10]: Dose-dependent effect
- Activity [12]: Active
- Activity [13]: inactive
- Activity [14]: Not Active
- Activity [2]: 87%
- Activity [15]: 87%
- Activity [16]: 77%
- Activity [17]: 77%
- Activity [18]: 72%
- Activity [19]: 57%
- Activity [20]: 173%
- Activity [21]: 137%
- Activity [22]: 178%
Compound: CC[C@H](C)[C@H]1NC(=O)[C@@H](NC(=O)[C@@H](N)CCCCNC(=O)COCCOCCNC(=O)COCCOCCNC(=O)[C@@H](NC(=O)[C@@H]2CCCN2C(=O)[C@H](NC(=O)[C@H](C)NC)C2CCCCC2)C(c2ccccc2)c2ccccc2)CSSC[C@H](C(=O)N[C@H](CCCNC(=N)N)C(=O)N[C@H](CC(C)(C)C)C(=O)N[C@H](CC(C)C)C(=O)N[C@H](CCC(N)=O)C(=O)NCC(=O)NCC(=O)NCC(=O)N[C@H](CCCNC(=N)N)C(=O)N[C@H](CCCNC(=N)N)C(=O)N[C@H](CCCNC(=N)N)C(=O)N[C@H](CCCNC(=N)N)C(=O)N[C@H](CCCNC(=N)N)C(=O)N[C@H](CCCNC(=N)N)C(=O)N[C@@H](CCCNC(=N)N)C(N)=O)NC(=O)[C@@H](CC(C)C)NC1=O
- Activity (MCF7 [11]): Toxic

- Activity [23]: inactive
- Activity [24]: Active
- Activity [3]: 100%
- Activity [4]: 92%
- Activity [25]: 105%
Compound: CC[C@H](C)[C@H]1NC(=O)[C@@H](NC(=O)[C@H](N)CCCCNC(=O)COCCOCCNC(=O)[C@@H](NC(=O)[C@@H]2CCCN2C(=O)[C@H](NC(=O)[C@H](C)NC)C2CCCCC2)C(c2ccccc2)c2ccccc2)CSSC[C@H](C(=O)N[C@H](CCCNC(=N)N)C(=O)N[C@H](CC(C)(C)C)C(=O)N[C@H](CC(C)C)C(=O)N[C@H](CCC(N)=O)C(=O)NCC(=O)NCC(=O)NCC(=O)N[C@H](CCCNC(=N)N)C(=O)N[C@H](CCCNC(=N)N)C(=O)N[C@H](CCCNC(=N)N)C(=O)N[C@H](CCCNC(=N)N)C(=O)N[C@H](CCCNC(=N)N)C(=O)N[C@H](CCCNC(=N)N)C(=O)N[C@@H](CCCNC(=N)N)C(N)=O)NC(=O)[C@@H](CC(C)C)NC1=O
